Data from ChEMBL document CHEMBL3044572, “Discovery of 2-(4-cyano-3-trifluoromethylphenyl amino)-4-(4-quinazolinyloxy)-6-piperazinyl(piperidinyl)-s-triazines as potential antibacterial agents” (2012).
Values after ≈ are worked out from the molar mass of the structure shown. Active and inactive are the calls of the source. No cut-off for these calls is given here.

What was measured:
Candida albicans [1] = experiment: Antimicrobial activity against Candida albicans MTCC 183 by agar streak dilution method; assay type: functional
Aspergillus clavatus [2] = experiment: Antimicrobial activity against Aspergillus clavatus MTCC 1323 by paper disk diffusion method; assay type: functional
Aspergillus niger [3] = experiment: Antimicrobial activity against Aspergillus niger MTCC 282 by paper-disk diffusion method; assay type: functional
Aspergillus fumigatus [4] = experiment: Antimicrobial activity against Aspergillus fumigatus MTCC 343 by paper-disk diffusion method; assay type: functional
Shigella flexneri [5] = experiment: Antimicrobial activity against Shigella flexneri MTCC 1457 at 100 ug/ml by paper-disk diffusion method; assay type: functional, organism-based
Proteus vulgaris [6] = experiment: Antimicrobial activity against Proteus vulgaris MTCC 1771 by paper disk diffusion method; assay type: functional
Salmonella typhi [7] = experiment: Antimicrobial activity against Salmonella enterica subsp. enterica serovar Typhi MTCC 733 by paper disk diffusion method; assay type: functional
Klebsiella pneumoniae [8] = experiment: Antimicrobial activity against Klebsiella pneumoniae MTCC 109 by paper disk diffusion method; assay type: functional
Pseudomonas aeruginosa [9] = experiment: Antimicrobial activity against Pseudomonas aeruginosa MTCC 741 by paper disk diffusion method; assay type: functional
Bacillus cereus [10] = experiment: Antimicrobial activity against Bacillus cereus MTCC 619 by paper disk diffusion method; assay type: functional
Escherichia coli [11] = experiment: Antimicrobial activity against Escherichia coli MTCC 739 by paper disk diffusion method; assay type: functional
Staphylococcus aureus [12] = experiment: Antimicrobial activity against Staphylococcus aureus MTCC 96 by paper-disk diffusion method; assay type: functional
Aspergillus clavatus [13] = experiment: Antimicrobial activity against Aspergillus clavatus MTCC 1323 by agar streak dilution method; assay type: functional
Aspergillus fumigatus [14] = experiment: Antimicrobial activity against Aspergillus fumigatus MTCC 343 by agar streak dilution method; assay type: functional
Aspergillus niger [15] = experiment: Antimicrobial activity against Aspergillus niger MTCC 282 by agar streak dilution method; assay type: functional
Proteus vulgaris [16] = experiment: Antimicrobial activity against Proteus vulgaris MTCC 1771 by agar streak dilution method; assay type: functional
Klebsiella pneumoniae [17] = experiment: Antimicrobial activity against Klebsiella pneumoniae MTCC 109 by agar streak dilution method; assay type: functional
Salmonella typhi [18] = experiment: Antimicrobial activity against Salmonella enterica subsp. enterica serovar Typhi MTCC 733 by agar streak dilution method; assay type: functional
Pseudomonas aeruginosa [19] = experiment: Antimicrobial activity against Pseudomonas aeruginosa MTCC 741 by agar streak dilution method; assay type: functional
Staphylococcus aureus [20] = experiment: Antimicrobial activity against Staphylococcus aureus MTCC 96 by agar streak dilution method; assay type: functional
Bacillus cereus [21] = experiment: Antimicrobial activity against Bacillus cereus MTCC 619 by agar streak dilution method; assay type: functional
[22] = system: Mycobacterium tuberculosis; experiment: Antimicrobial activity against Mycobacterium tuberculosis H37Rv at 100 ug/ml by BACTEC MGIT method; assay type: functional, organism-based
Escherichia coli [23] = experiment: Antimicrobial activity against Escherichia coli MTCC 739 by agar streak dilution method; assay type: functional
[24] = system: Mycobacterium tuberculosis; experiment: Antimicrobial activity against Mycobacterium tuberculosis H37Rv by Lowenstein and Jensen method; assay type: functional; details: for MIC: Mycobacterium tuberculosis, H37Rv
[25] = system: Mycobacterium tuberculosis; experiment: Antimicrobial activity against Mycobacterium tuberculosis H37Rv by BACTEC MGIT method; assay type: functional; details: Mycobacterium tuberculosis, H37Rv
Candida albicans [26] = experiment: Antimicrobial activity against Candida albicans MTCC 183 by paper-disk diffusion method; assay type: functional
Pseudomonas aeruginosa [27] = experiment: Antimicrobial activity against Pseudomonas aeruginosa MTCC 741 at 100 ug/ml by paper disk diffusion method; assay type: functional, organism-based
Shigella flexneri [28] = experiment: Antimicrobial activity against Shigella flexneri MTCC 1457 by paper disk diffusion method; assay type: functional
Shigella flexneri [29] = experiment: Antimicrobial activity against Shigella flexneri MTCC 1457 by agar streak dilution method; assay type: functional

Which MIC (Candida albicans [1]) does the source give for `CC(C)N1CCN(c2nc(Nc3ccc(C#N)c(C(F)(F)F)c3)nc(Oc3ncnc4ccccc34)n2)CC1` here?
Its MIC is 50 µg/mL (≈ 93.4 µM).

And the “inhibition zone (IZ)” value (Aspergillus clavatus [2])?
The value was 23 mm.

And the “inhibition zone (IZ)” value (Aspergillus niger [3])?
Its value is 22 mm.

What about the “inhibition zone (IZ)” value (Aspergillus fumigatus [4]) of the same compound?
Its value is 23 mm.

What about the “inhibition zone (IZ)” value (Shigella flexneri [5]) of the same compound?
The value was “inactive”.

What about the “inhibition zone (IZ)” value (Proteus vulgaris [6]) of the same compound?
The value was 24 mm.

What about the “inhibition zone (IZ)” value (Salmonella typhi [7]) of the same compound?
The value was 23 mm.

What about the “inhibition zone (IZ)” value (Klebsiella pneumoniae [8]) of the same compound?
Its value is 22 mm.

And the “inhibition zone (IZ)” value (Pseudomonas aeruginosa [9])?
Its value is 24 mm.

What about the “inhibition zone (IZ)” value (Bacillus cereus [10]) of the same compound?
The value was 23 mm.

What about the “inhibition zone (IZ)” value (Escherichia coli [11]) of the same compound?
The value was 27 mm.

And the “inhibition zone (IZ)” value (Staphylococcus aureus [12])?
The value was 25 mm.

What about the MIC (Aspergillus clavatus [13]) of the same compound?
The MIC was 25 µg/mL (≈ 46.7 µM).

What about the MIC (Aspergillus fumigatus [14]) of the same compound?
The MIC was 50 µg/mL (≈ 93.4 µM).

And the MIC (Aspergillus niger [15])?
The MIC was 100 µg/mL (≈ 187 µM).

What about the MIC (Proteus vulgaris [16]) of the same compound?
Its MIC is 25 µg/mL (≈ 46.7 µM).

What about the MIC (Klebsiella pneumoniae [17]) of the same compound?
The MIC was 50 µg/mL (≈ 93.4 µM).

What about the MIC (Salmonella typhi [18]) of the same compound?
Its MIC is 50 µg/mL (≈ 93.4 µM).

What about the MIC (Pseudomonas aeruginosa [19]) of the same compound?
Its MIC is 12.5 µg/mL (≈ 23.3 µM).

And the MIC (Staphylococcus aureus [20])?
The MIC was 25 µg/mL (≈ 46.7 µM).

And the MIC (Bacillus cereus [21])?
The MIC was 50 µg/mL (≈ 93.4 µM).

What about the inhibition [22] of the same compound?
Its inhibition is “inactive”.

And the MIC (Escherichia coli [23])?
The MIC was 12.5 µg/mL (≈ 23.3 µM).

And the “inhibition (percent inhibition)” value [24]?
Its value is 97%.

And the MIC [24]?
The MIC was 50 µg/mL (≈ 93.4 µM).

And the MIC [25]?
Its MIC is greater than 6.25 µg/mL.

What about the “inhibition zone (IZ)” value (Candida albicans [26]) of the same compound?
The value was 23 mm.

What does the source list for `COc1ccc(N2CCN(c3nc(Nc4ccc(C#N)c(C(F)(F)F)c4)nc(Oc4ncnc5ccccc45)n3)CC2)cc1`?
MIC (Candida albicans [1]): 12.5 µg/mL (≈ 20.8 µM); inhibition zone (IZ) (Aspergillus clavatus [2]): 25 mm; inhibition zone (IZ) (Aspergillus niger [3]): 25 mm; inhibition zone (IZ) (Aspergillus fumigatus [4]): 25 mm; inhibition zone (IZ) (Pseudomonas aeruginosa [27]): inactive; inhibition zone (IZ) (Shigella flexneri [28]): 23 mm; inhibition zone (IZ) (Proteus vulgaris [6]): 26 mm; inhibition zone (IZ) (Salmonella typhi [7]): 25 mm; inhibition zone (IZ) (Klebsiella pneumoniae [8]): 25 mm; inhibition zone (IZ) (Pseudomonas aeruginosa [9]): 27 mm; inhibition zone (IZ) (Bacillus cereus [10]): 25 mm; inhibition zone (IZ) (Escherichia coli [11]): 28 mm; inhibition zone (IZ) (Staphylococcus aureus [12]): 27 mm; MIC (Aspergillus clavatus [13]): 6.25 µg/mL (≈ 10.4 µM); MIC (Aspergillus fumigatus [14]): 6.25 µg/mL (≈ 10.4 µM); MIC (Aspergillus niger [15]): 6.25 µg/mL (≈ 10.4 µM); MIC (Proteus vulgaris [16]): 6.25 µg/mL (≈ 10.4 µM); MIC (Shigella flexneri [29]): 50 µg/mL (≈ 83.4 µM); MIC (Klebsiella pneumoniae [17]): 12.5 µg/mL (≈ 20.8 µM); MIC (Salmonella typhi [18]): 25 µg/mL (≈ 41.7 µM); MIC (Pseudomonas aeruginosa [19]): 12.5 µg/mL (≈ 20.8 µM); MIC (Staphylococcus aureus [20]): 6.25 µg/mL (≈ 10.4 µM); MIC (Bacillus cereus [21]): 6.25 µg/mL (≈ 10.4 µM); inhibition [22]: inactive; MIC (Escherichia coli [23]): 6.25 µg/mL (≈ 10.4 µM); inhibition (percent inhibition) [24]: 99%; MIC [24]: 25 µg/mL (≈ 41.7 µM); MIC [25]: > 6.25 µg/mL; inhibition zone (IZ) (Candida albicans [26]): 25 mm

Which MIC (Candida albicans [1]) does the source give for `N#Cc1ccc(Nc2nc(Oc3ncnc4ccccc34)nc(N3CCN(c4ccc(F)cc4)CC3)n2)cc1C(F)(F)F` here?
The MIC was 6.25 µg/mL (≈ 10.6 µM).

What about the “inhibition zone (IZ)” value (Aspergillus clavatus [2]) of the same compound?
The value was 24 mm.

What about the “inhibition zone (IZ)” value (Aspergillus niger [3]) of the same compound?
The value was 25 mm.

And the “inhibition zone (IZ)” value (Aspergillus fumigatus [4])?
Its value is 24 mm.

What about the “inhibition zone (IZ)” value (Pseudomonas aeruginosa [27]) of the same compound?
Its value is “inactive”.

What about the “inhibition zone (IZ)” value (Shigella flexneri [28]) of the same compound?
The value was 23 mm.

What about the “inhibition zone (IZ)” value (Proteus vulgaris [6]) of the same compound?
Its value is 24 mm.

And the “inhibition zone (IZ)” value (Salmonella typhi [7])?
Its value is 27 mm.

And the “inhibition zone (IZ)” value (Klebsiella pneumoniae [8])?
Its value is 23 mm.

And the “inhibition zone (IZ)” value (Pseudomonas aeruginosa [9])?
Its value is 28 mm.

What about the “inhibition zone (IZ)” value (Bacillus cereus [10]) of the same compound?
Its value is 26 mm.

And the “inhibition zone (IZ)” value (Escherichia coli [11])?
The value was 25 mm.

And the “inhibition zone (IZ)” value (Staphylococcus aureus [12])?
Its value is 28 mm.

What about the MIC (Aspergillus clavatus [13]) of the same compound?
Its MIC is 12.5 µg/mL (≈ 21.3 µM).

And the MIC (Aspergillus fumigatus [14])?
Its MIC is 12.5 µg/mL (≈ 21.3 µM).

What about the MIC (Aspergillus niger [15]) of the same compound?
Its MIC is 12.5 µg/mL (≈ 21.3 µM).

What about the MIC (Proteus vulgaris [16]) of the same compound?
Its MIC is 12.5 µg/mL (≈ 21.3 µM).

And the MIC (Shigella flexneri [29])?
Its MIC is 50 µg/mL (≈ 85.1 µM).

And the MIC (Klebsiella pneumoniae [17])?
Its MIC is 25 µg/mL (≈ 42.6 µM).

What about the MIC (Salmonella typhi [18]) of the same compound?
The MIC was 6.25 µg/mL (≈ 10.6 µM).

What about the MIC (Pseudomonas aeruginosa [19]) of the same compound?
The MIC was 6.25 µg/mL (≈ 10.6 µM).

And the MIC (Staphylococcus aureus [20])?
The MIC was 6.25 µg/mL (≈ 10.6 µM).

And the MIC (Bacillus cereus [21])?
The MIC was 12.5 µg/mL (≈ 21.3 µM).

What about the inhibition [22] of the same compound?
The inhibition was “inactive”.

What about the MIC (Escherichia coli [23]) of the same compound?
The MIC was 25 µg/mL (≈ 42.6 µM).

What about the “inhibition (percent inhibition)” value [24] of the same compound?
Its value is 98%.

What about the MIC [24] of the same compound?
Its MIC is 12.5 µg/mL (≈ 21.3 µM).

And the MIC [25]?
Its MIC is greater than 6.25 µg/mL.

And the “inhibition zone (IZ)” value (Candida albicans [26])?
The value was 27 mm.
